For one molecule, logP and solubility results are on record in US6569449B1, “Transdermal delivery of opioid antagonist prodrugs” (University of Kentucky Research Foundation, priority 2000, dated 2003).

Data set [1] can be described thus: Octanol/water partition coefficients. The settings on record: octanol/pH 7.4 isotonic phosphate buffer, room temperature; read-out: Experimental log P. It is filed as physicochemical. How it is done: The octanol/water partition coefficients were determined using pH 7.4 isotonic phosphate buffer as the aqueous phase. All steps were carried out at room temperature. An appropriate amount of drug was weighed into a vial and dissolved in a known amount of octanol. An equivalent amount of buffer was then added to the vial and the phases shaken for 24 hours. The vials were left undisturbed for at least one hour after shaking. An exact volume was taken from the aqueous phase, diluted with acetonitrile, and then analyzed by HPLC. The final pH of the aqueous phase at the end of the shaking period was 7.95. Similarly, an exact volume was taken from the octanol phase, diluted with acetonitrile, and then analyzed by HPLC. Partition coefficients were calculated by determining the phase concentration ratios.

Data set [2] in a line: Solubilities in light mineral oil and pH 7.4 isotonic phosphate buffer. In kind it is physicochemical. The settings on record: thermodynamic from solid, 32° C., 48 hours equilibration. The procedure:
The solubilities of naltrexone and its esters were obtained by equilibrating large excesses of each substance with the respective vehicle, light mineral oil, or pH 7.4 isotonic phosphate buffer at 32° C. To hasten the attainment of equilibrium, each slurry was continuously shaken in a sealed container in a shaking incubation oven. Samples were taken, filtered (mineral oil:Millex FG-13, Millipore and buffer:glass microfiber, Gelman) above 32° C., measured with respect to volume, and diluted with the appropriate amount of acetonitrile. The diluted samples were analyzed by HPLC. The initial forty percent of each filtrate was discarded to eliminate the possibility that adsorption of drug on the filter and/or the filtering apparatus might influence the solubility determination. The sampling procedure was repeated at least once for each sample. […] Therefore, the equilibration times for all the studies were 48 hours.

Values after ≈ are worked out from the molar mass of the structure shown. Where two headings read alike, the source gives them in different places.

By solubility is commonly meant how much of the substance goes into solution per volume. As for `O=C1CC[C@@]2(O)[C@H]3Cc4ccc(O)c5c4[C@@]2(CCN3CC2CC2)[C@H]1O5` [NTX, Naltrexone], the logP at 24 h in data set [1] worked out at 0.67. Further, the solubility at 48 h in data set [2] (aqueous buffer, pH 7.4 isotonic phosphate buffer, read-out: Phosphate Buffer Solubility pH 7.4 32° C.) was determined as 15.2 mM (≈ 5190 µg/mL); in data set [2] (oil or lipid, light mineral oil, read-out: Light Mineral Oil Solubility 32° C.) it was 0.258 mM (≈ 88.1 µg/mL).
